Values of other authors, collected in patent US9771618B2, “Methods for treating breast cancer” (Bioarray Genetics, Inc., priority 2009, dated 2017).

Tested on: locally advanced breast cancer
Settings: 24 tumors of the Chang, et al. dataset (10 of 24); response assessed after neoadjuvant chemotherapy

CC(=O)O[C@H]1C(=O)[C@@]2(C)[C@H]([C@H](OC(=O)c3ccccc3)[C@]3(O)C[C@H](OC(=O)[C@H](O)[C@@H](NC(=O)c4ccccc4)c4ccccc4)C(C)=C1C3(C)C)[C@]1(OC(C)=O)CO[C@@H]1C[C@@H]2O [taxol, paclitaxel]
overall taxol sensitive rate: 41.7%
